US12600716B2 (Gannex Pharma Co., Ltd., priority 2020, dated 2026)
Where two headings read alike, the source gives them in different places.

Assays:
human FXR protein = biological target: T1, human FXR protein (Homo sapiens, UniProt Q96RI1); assay: FXR agonist binding ability: time-resolved fluorescence (LanthaScreen) FXR/coactivator assay; type: biochemical; details: GST-labeled human FXR, fluorescein-labeled coactivator, TR-FRET
T1 construct: purchased Invitrogen
Experimental: FXR Agonist Binding Ability Evaluation of the activation effect of the compound of the present invention with regard to the binding of FXR to its co-stimulatory factor SRC-1 was conducted by using time-resolved analytical techniques. Protein: glutathione-S-transferase (GST)-labeled human FXR protein (Invitrogen) • 2. Coactivator: Fluorescein-labeled steroid receptor coactivator (SRC2-2) (Invitrogen) • 3. Detection reagent: LanthaScreen Time-Resolved Fluorescence Analysis Kit (Invitrogen) • 1. The compound was prepared into a 10 mM DMSO stock solution and stored in a −20° C. refrigerator for a long time. • 2. The compound was diluted to 1 mM before the experiment, and then the compound was diluted 3-fold to 10 concentration points using DMSO. Then use buffer G (Invitrogen, PV4553) to dilute these 10 concentration points by 50 times to become a working fluid. Add 10 μl of each working solution to each well of a 384-well plate. • 3. Prepare a human FXR protein solution (final concentration 20 nM) in chilled buffer G and add 5 μl of human FXR protein solution to each well of a 384-well plate. • 4. Prepare a mix of buffer G containing 2 μM fluorescein-labeled steroid receptor coactivator and 20 nM GST antibody. • 5. Add 5 μl of the mixture prepared in Step 4 to a 384-well plate. • 6. Centrifuge the 384-well plate at 1000 g for 1 minute. • 7. Incubate for 1 hour at room temperature in the dark. • 8. Read the 384-well plate at 520 nm and 495 nm on an Envision 2104 plate reader. • 9. Calculate the EC50 value of the activation effect of the compound.

hFXR-LBD-GAL4 = biological target: T2, hFXR-LBD-GAL4 (Homo sapiens, UniProt Q96RI1); assay: FXR agonist transactivation ability: luciferase reporter gene in HEK293T; type: cell-based; details: read-out: Cell activity
T2 construct: GAL4 (fusion partner); host or cells: HEK293T
T2 sequence (Q96RI1 262-486 limits assumed): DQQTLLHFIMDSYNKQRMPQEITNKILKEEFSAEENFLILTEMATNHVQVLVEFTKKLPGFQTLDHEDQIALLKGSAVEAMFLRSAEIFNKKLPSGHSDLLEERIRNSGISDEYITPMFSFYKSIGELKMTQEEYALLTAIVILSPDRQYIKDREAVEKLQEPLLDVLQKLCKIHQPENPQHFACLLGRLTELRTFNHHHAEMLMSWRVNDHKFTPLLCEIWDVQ
Experimental: FXR Agonist Transactivation Ability
Evaluation of the ability of the compound of the present invention to promote FXR transactivation was conducted by using luciferase reporter gene expression technology.
• 1. Cell line: HEK293T (Invitrogen) • 2. Expression plasmid: pBIND-hFXR-LBD-GAL4 (Promega), pGL4.35-luciferase (Promega) • 3. Cell culture medium: 10% serum and penicillin/streptomycin double antibody in DMEM medium • 4. Detection reagent: Steady-Glo fluorescence detection system (Promega). • 5. Transfection reagent: TransIT-293 Transfection Reagent (MIRUS BIO)
• 1. The compound was prepared into a 10 mM DMSO stock solution and stored in a −20° C. refrigerator for a long time. • 2. Resuscitation HEK293T cells were seeded in 10 cm culture dishes at a concentration of 5.5×10^6 and incubated for 16 hours at 37° C. in a 5% CO2 incubator. • 3. Return the transfection reagent to room temperature before transfection. The Trans-IT solution was added dropwise to Opti-MEM, and mixed by inversion for 5 minutes; the expression plasmid was added, mixed by inversion, and incubated at room temperature for 20 minutes. • 4. Add the transfection mixture from Step 3 to the prepared 10 cm dish in Step 2 and incubate for 5-6 hours in a 5% CO2 incubator. • 5. Dilute the compound 3 folds to 10 concentration points using DMSO; add 25 nl of compound per well in a 384-well plate using an Echo 550 sonic pipette; add HEK293T cells to the 384-well plate at a concentration of 15,000 cells/well; 37° C. incubate for 16-20 hours in a 5% CO2 incubator. • 6. Add 25 μl of Steady-Glo Fluorescent Reagent to each well and read the fluorescence on an Envision 2104 plate reader. • 7. Calculate the EC50 value of the activation of the compound.

[1] = Mouse pharmacokinetic studies (IV and PO); type: in vivo, Male CD-1 mice; details: for PO F: PO 10 mg/kg vs IV 2.0 mg/kg; for Vd / AUC(0-t) / clearance / half-life / Cmax / Tmax: male, CD-1, plasma; for clearance: read-out: IV Cl; for half-life: read-out: IV T½ (converted)
Experimental: Mouse Pharmacokinetic Studies
Typical PK study procedure. For i.v. PK studies, a group of three fasted Male CD-1 mice were dosed with the compound (2.0 mg/kg, 0.50 mg/mL in 5% solutol in saline, clear solution), and 0.02 mL blood was collected at 0.0830, 0.250, 0.500, 1.00, 2.00, 4.00, 8.00, 24.0 h. For PO PK studies, a group of three fasted Male CD-1 mice were dosed with the compound (10 mg/kg, 1 mg/mL in 5% solutol in saline, clear solution), and 0.02 mL blood was collected at 0.250, 0.500, 1.00, 2.00, 4.00, 6.00, 8.00, 24.0 h. The blood was collected into EP tubes (containing EDTA K20.85-1.15 mg) and centrifuged at 3,000 g or 3,200 g at 4° C. for 10 min) and plasma was isolated and divided into two vials. One was used for bioanalysis and one was kept as backup. The samples were kept at −60° C. or below, until being analyzed by LC MS/MS. The samples were analyzed with AB SCIEX INSTRUMENTS LC-MS/MS AU-Triple Quad 6500 Plus and data were processed with Phoenix WinNonlin 6.3 (IV-noncompartmental model and PO-noncompartmental model).

[2] = system: DEN+HFD+CHOL induced NASH model; assay: DEN+HFD+CHOL induced NASH model in rats; type: in vivo, male SD rats; details: 30 mg/kg PO QD 7 weeks; p<0.001
Experimental: Therapeutic efficacy of FXR compounds was evaluated in DEN+HFD+CHOL induced NASH model in male SD rats. Newborn male rats received DEN injection at Week 2 after birth to generate NASH model. Negative control animals (Group 1, n=10) received no DEN injection. At Week 4, 50 rats that received DEN injections started HFD+CHOL diet (60 kcal % Fat+1.25% Cholesterol+0.5% cholate) for 8 weeks, while negative control animals were still on normal diet. At Week 5, DEN treated rats were randomly assigned into 5 groups (Group 2-6) based on body weight. Disease Group (Group 2, n=10), received no treatment; OCA group (Group 3, n=10) received OCA at 30 mg/kg. Group 4-6 (n=10 each) received Compound 1 at low (3 mg/kg), […], and […]. OCA and Compound 1 were given PO QD, for 7 weeks. On the day after last dose, all animals were euthanized and liver tissues were fixed with formalin for pathological evaluation.

[3] = system: STZ+DEN+HFD induced NASH model; assay: STZ+DEN+HFD induced NASH model in mice; type: in vivo, male C57BL/6 mice; details: 30 mg/kg PO QD 7 weeks
Experimental: Therapeutic efficacy of FXR compounds was evaluated in STZ+DEN+HFD induced NASH model in male C57BL/6 mice. Briefly, newborn male C57BL/6 mice were injected with streptozocin (STZ) at Week 2 to introduce diabetes and diethylnitrosamine (DEN) at Week 4 to promote liver fibrosis. Mice receiving neither STZ nor DEN were used as negative control (Group 1, n=12) and were fed with normal diet. At Week 6, 60 diabetic mice were selected (blood glucose>12 mmol/L after 6 h of fasting) and were fed with high fat diet (HFD, diet that contains 60 kcal % fat). After one week on HFD, animals were randomly assigned into 5 groups based on body weight: Group 2 (n=12), disease model group, no compound treatment; Group 3 (n=10), positive control group, treated with OCA (30 mg/kg); Group 4 (n=12), treated with Compound 1 (3 mg/kg); Group 5 (n=12), treated with Compound 1 (10 mg/kg); Group 6 (n=12), treated with Compound 1 (30 mg/kg). OCA and Compounds 1 were PO QD, for 7 weeks. On the day after last dose, all animals were euthanized and liver tissues were fixed with formalin for pathological evaluation.

[4] = IV 2.0 mg/kg, read-out: IV AUC 0-t
[5] = PO 10 mg/kg, read-out: PO AUC 0-t

SMILES	EC50 (human FXR protein) [nM]	EC50 (hFXR-LBD-GAL4) [nM]	PO F [1] [%]	Vd ([1]; IV 2.0 mg/kg) [L/kg]	AUC(0-t) [1, 4] [ng·h/mL]	clearance ([1]; IV 2.0 mg/kg) [mL/min/kg]	half-life ([1]; IV 2.0 mg/kg) [min]	Cmax ([1]; PO 10 mg/kg) [ng/mL]	Tmax ([1]; PO 10 mg/kg) [min]	AUC(0-t) [1, 5] [ng·h/mL]	NAS score [2]	NAS score [3]
Cc1nc(Oc2c(F)ccc3cc(OCc4c(-c5c(Cl)cccc5Cl)noc4C4CC4)ccc23)ccc1C(=O)O [Compound 45, 6-((6-((5-cyclopropyl-3-(2,6-dichlorophenyl)isoxazol-4-yl)methoxy)-2-fluoronaphthalen-1-yl)oxy)-2-methylnicotinic acid]	< 50	< 200	15.7	1.04	1500	22.1	84	627	60	1140		
Cc1cc(C(=O)O)cnc1Oc1c(F)ccc2cc(OCc3c(-c4c(Cl)cccc4Cl)noc3C3CC3)ccc12 [Compound 47, 6-((6-((5-cyclopropyl-3-(2,6-dichlorophenyl)isoxazol-4-yl)methoxy)-2-fluoronaphthalen-1-yl)oxy)-5-methylnicotinic acid]	< 50	< 200	28.6	0.495	1500	22.2	38.3	2150	30	2140		
CC[C@H]1[C@@H](O)[C@@H]2[C@H](CC[C@]3(C)[C@@H]([C@H](C)CCC(=O)O)CC[C@@H]23)[C@@]2(C)CC[C@@H](O)C[C@@H]12 [OCA, reference compound]											decrease in NAS score	decrease in NAS score

Further lines, with some results ahead:

EC50 (human FXR protein) [nM]	EC50 (hFXR-LBD-GAL4) [nM]	PO F [1] [%]	Vd ([1]; IV 2.0 mg/kg) [L/kg]	AUC(0-t) [1, 4] [ng·h/mL]	clearance ([1]; IV 2.0 mg/kg) [mL/min/kg]	half-life ([1]; IV 2.0 mg/kg) [min]	Cmax ([1]; PO 10 mg/kg) [ng/mL]	Tmax ([1]; PO 10 mg/kg) [min]	AUC(0-t) [1, 5] [ng·h/mL]	SMILES	NAS score [2]	NAS score [3]
< 50	< 200	33.2	0.897	1690	19.7	96.6	2080	30	2780	Cc1nc(Oc2cccc3cc(OCc4c(-c5c(Cl)cccc5Cl)noc4C4CC4)ccc23)ccc1C(=O)O [Compound 27, 6-((6-((5-cyclopropyl-3-(2,6-dichlorophenyl)isoxazol-4-yl)methoxy)naphthalen-1-yl)oxy)-2-methylnicotinic acid]		
< 50	< 200	29.9	0.663	1180	28.4	58.6	2130	30	1740	Cc1cc(C(=O)O)cnc1Oc1cccc2cc(OCc3c(-c4c(Cl)cccc4Cl)noc3C3CC3)ccc12 [Compound 28, 6-((6-((5-cyclopropyl-3-(2,6-dichlorophenyl)isoxazol-4-yl)methoxy)naphthalen-1-yl)oxy)-5-methylnicotinic acid]		
< 50	< 200	9.74	2.77	304	110	36.8	133	20	140	O=C(O)c1ccc(Oc2ccc3ccc(OCc4c(-c5c(Cl)cccc5Cl)noc4C4CC4)cc3c2)nc1 [Compound 31, 6-((7-((5-cyclopropyl-3-(2,6-dichlorophenyl)isoxazol-4-yl)methoxy)naphthalen-2-yl)oxy)nicotinic acid]		
< 50	< 200	54.7	1.36	1400	24	61.8	1400	30	3810	O=C(O)c1ccc(Oc2ccc3c(F)c(OCc4c(-c5c(Cl)cccc5Cl)noc4C4CC4)ccc3c2)nc1 [Compound 32, 6-((6-((5-cyclopropyl-3-(2,6-dichlorophenyl)isoxazol-4-yl)methoxy)-5-fluoronaphthalen-2-yl)oxy)nicotinic acid]		
< 50	< 200	23.7	2.06	559	60.4	73.8	384	56	646	O=C(O)c1ccc(F)cc1Oc1c(F)ccc2cc(OCc3c(-c4c(Cl)cccc4Cl)noc3C3CC3)ccc12 [Compound 44, 2-((6-((5-cyclopropyl-3-(2,6-dichlorophenyl)isoxazol-4-yl)methoxy)-2-fluoronaphthalen-1-yl)oxy)-4-fluorobenzoic acid]		
